Assay results reported in ChEMBL document CHEMBL1201862, “PubChem BioAssay data set” (2004).
Calls of active or inactive are those of the source.

What was measured:
H9c2 = experiment: cells; format: functional, cell-based; conditions: Rattus norvegicus, H9c2, Myocardium;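 also: confirmatory concentration-response retest of ultra-high-throughput screening hits for modulation of myocardial damage; cell death induced by hydrogen peroxide oxidative stress; compound pretreatment for 60 min then peroxide exposure for 2 h; potency is for protecting the cells against peroxide damage rather than for killing them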
[1] = Luminescence Cell-Based Dose Confirmation HTS to Identify Inhibitors of Platelet Dense Granule Release. [Related pubchem assays: 1663 (Primary HTS), 1678 (Summary of Project)]; format: functional
[2] = molecular target: Luciferin 4-monooxygenase (Photinus pyralis, UniProt P08659); experiment: firefly luciferase enzyme inhibitors, dose response, biochemical, luminescence (AID 1891)
Luciferin 4-monooxygenase, sequence (P08659 whole entry): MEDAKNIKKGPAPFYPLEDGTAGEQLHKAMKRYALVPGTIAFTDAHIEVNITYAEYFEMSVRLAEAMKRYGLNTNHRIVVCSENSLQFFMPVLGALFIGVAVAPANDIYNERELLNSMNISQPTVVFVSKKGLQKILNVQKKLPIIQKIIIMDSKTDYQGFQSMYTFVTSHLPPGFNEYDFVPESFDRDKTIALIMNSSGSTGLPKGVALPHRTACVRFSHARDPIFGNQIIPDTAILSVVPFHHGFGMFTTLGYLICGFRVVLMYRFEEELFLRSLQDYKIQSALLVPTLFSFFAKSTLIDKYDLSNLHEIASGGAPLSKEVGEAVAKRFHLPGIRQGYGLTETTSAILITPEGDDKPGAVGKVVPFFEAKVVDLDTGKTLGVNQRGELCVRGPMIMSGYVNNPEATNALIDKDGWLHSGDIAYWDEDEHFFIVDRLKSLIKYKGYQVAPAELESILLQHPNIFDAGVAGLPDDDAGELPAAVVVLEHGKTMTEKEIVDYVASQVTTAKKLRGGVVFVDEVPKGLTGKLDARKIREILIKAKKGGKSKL

[3] = molecular target: T1, Short transient receptor potential channel 4 (Mus musculus, UniProt Q9QUQ5); experiment: mouse TRPC4 channel inhibitors, dose response, cell-based, HEK293 TRPC4/mu-opioid, Fluo-4 calcium (AID 434942); format: functional;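 also: potency of inhibitors blocking the TRPC4 calcium response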
T1 sequence (Q9QUQ5 whole entry): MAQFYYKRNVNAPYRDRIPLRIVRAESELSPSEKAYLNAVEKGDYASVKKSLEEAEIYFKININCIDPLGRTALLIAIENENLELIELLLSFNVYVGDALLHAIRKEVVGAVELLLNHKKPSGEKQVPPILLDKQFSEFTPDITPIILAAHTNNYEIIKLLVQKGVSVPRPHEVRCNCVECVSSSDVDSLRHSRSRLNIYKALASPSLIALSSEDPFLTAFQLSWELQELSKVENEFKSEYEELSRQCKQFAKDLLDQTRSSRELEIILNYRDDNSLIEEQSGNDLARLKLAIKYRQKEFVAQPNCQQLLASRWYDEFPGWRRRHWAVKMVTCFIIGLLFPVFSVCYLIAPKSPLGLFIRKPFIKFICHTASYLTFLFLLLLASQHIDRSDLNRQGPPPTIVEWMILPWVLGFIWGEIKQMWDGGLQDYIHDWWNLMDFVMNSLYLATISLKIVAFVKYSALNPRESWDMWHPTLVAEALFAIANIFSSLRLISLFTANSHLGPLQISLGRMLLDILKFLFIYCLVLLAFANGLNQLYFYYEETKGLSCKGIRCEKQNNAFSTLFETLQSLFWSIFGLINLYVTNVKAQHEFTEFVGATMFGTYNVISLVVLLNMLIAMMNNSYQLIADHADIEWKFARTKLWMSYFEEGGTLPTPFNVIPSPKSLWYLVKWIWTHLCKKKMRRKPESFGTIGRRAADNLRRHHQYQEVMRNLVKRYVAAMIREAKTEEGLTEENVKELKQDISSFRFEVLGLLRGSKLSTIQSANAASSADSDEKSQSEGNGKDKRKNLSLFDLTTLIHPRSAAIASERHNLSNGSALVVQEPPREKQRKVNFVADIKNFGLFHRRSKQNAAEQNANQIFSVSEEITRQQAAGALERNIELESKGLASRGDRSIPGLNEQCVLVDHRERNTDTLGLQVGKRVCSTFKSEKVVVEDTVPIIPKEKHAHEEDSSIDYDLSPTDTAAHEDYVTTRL

Cytochrome P450 3A4 = Cytochrome P450 3A4 (Homo sapiens, UniProt P08684);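 also: CYP3A4 tested as one member of a cytochrome P450 panel screen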
Cytochrome P450 3A4, sequence (P08684 whole entry): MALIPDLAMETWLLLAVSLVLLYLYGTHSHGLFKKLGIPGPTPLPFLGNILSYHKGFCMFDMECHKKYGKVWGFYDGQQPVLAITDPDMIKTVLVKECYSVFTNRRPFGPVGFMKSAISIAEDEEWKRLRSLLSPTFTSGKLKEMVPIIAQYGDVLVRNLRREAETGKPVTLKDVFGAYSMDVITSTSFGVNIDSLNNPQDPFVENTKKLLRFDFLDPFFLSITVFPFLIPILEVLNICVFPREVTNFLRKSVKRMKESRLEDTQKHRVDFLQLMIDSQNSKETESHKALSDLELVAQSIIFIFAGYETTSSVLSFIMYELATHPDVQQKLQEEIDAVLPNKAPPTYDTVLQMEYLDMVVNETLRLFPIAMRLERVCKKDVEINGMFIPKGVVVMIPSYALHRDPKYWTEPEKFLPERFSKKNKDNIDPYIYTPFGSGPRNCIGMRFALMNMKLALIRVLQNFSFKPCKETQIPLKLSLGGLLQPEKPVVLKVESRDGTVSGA

Cytochrome P450 2C9 = Cytochrome P450 2C9 (Homo sapiens, UniProt P11712)
Cytochrome P450 2C9, sequence (P11712 whole entry): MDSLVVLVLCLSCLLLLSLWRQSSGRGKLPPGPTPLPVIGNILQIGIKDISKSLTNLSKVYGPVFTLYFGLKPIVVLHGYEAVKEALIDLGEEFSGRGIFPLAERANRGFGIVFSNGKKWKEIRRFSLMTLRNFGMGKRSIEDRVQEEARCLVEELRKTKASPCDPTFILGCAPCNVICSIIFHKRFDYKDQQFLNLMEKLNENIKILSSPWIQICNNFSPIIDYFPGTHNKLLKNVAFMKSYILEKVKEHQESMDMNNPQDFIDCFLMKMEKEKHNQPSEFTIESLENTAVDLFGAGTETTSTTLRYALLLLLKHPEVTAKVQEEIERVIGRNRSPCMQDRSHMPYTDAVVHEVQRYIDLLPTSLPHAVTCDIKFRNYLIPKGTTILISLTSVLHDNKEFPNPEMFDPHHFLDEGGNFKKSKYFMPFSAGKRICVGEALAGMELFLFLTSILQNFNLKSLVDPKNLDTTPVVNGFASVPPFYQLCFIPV

[4] = NIH-3T3 fibroblast cytotoxicity, dose response, cytotoxicity control, cell-based, fluorescence, Alamar Blue, secondary assay (AID 2327); format: functional;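 also: NIH-3T3 mouse fibroblasts cultured with fluconazole at 8 µg/mL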
Cytochrome P450 2D6 = Cytochrome P450 2D6 (Homo sapiens, UniProt P10635);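 also: CYP2D6 member of a cytochrome P450 panel assay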
Cytochrome P450 2D6, sequence (P10635 whole entry): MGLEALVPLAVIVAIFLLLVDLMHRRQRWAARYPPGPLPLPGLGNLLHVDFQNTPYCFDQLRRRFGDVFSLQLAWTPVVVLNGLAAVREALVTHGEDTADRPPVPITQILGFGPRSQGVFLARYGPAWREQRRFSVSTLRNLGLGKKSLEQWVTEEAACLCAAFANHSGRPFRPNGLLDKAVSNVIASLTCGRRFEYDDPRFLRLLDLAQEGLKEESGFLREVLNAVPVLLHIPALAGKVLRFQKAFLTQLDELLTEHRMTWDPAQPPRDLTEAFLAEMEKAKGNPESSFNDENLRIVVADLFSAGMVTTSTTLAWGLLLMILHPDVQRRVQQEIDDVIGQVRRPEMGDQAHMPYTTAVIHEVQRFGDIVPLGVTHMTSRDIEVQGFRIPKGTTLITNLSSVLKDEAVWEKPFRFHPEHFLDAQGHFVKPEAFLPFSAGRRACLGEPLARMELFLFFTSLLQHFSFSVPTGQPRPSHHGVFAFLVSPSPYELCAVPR

[5] = C. albicans growth with fluconazole, confirmation, fluorescence, retest (AID 2467); format: functional, cell-based
[6] = microbe, parasite or virus in culture; format: functional; conditions: Mycobacterium tuberculosis
[7] = molecular target: T2, Corticotropin-releasing factor receptor 2/Corticotropin-releasing factor-binding protein (Homo sapiens, UniProt P24387+Q13324); experiment: activators of CRF receptor 2 with binding protein – uHTS hits, confirmation (AID 602473); format: functional; conditions: read-out: EC50_Mean
T2 sequence (Q13324 whole entry): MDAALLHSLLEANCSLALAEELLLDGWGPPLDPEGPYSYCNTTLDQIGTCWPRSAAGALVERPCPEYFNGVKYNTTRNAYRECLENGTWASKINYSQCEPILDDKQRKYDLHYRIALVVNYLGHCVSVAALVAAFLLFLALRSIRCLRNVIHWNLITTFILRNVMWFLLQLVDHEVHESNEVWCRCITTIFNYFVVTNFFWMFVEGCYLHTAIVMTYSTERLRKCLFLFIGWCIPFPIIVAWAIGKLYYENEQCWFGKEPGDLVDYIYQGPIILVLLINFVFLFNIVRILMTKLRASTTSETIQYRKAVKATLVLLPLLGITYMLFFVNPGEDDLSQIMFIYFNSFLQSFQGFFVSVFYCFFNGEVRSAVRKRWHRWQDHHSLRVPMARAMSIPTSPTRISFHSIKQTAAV
T2 sequence (P24387 whole entry): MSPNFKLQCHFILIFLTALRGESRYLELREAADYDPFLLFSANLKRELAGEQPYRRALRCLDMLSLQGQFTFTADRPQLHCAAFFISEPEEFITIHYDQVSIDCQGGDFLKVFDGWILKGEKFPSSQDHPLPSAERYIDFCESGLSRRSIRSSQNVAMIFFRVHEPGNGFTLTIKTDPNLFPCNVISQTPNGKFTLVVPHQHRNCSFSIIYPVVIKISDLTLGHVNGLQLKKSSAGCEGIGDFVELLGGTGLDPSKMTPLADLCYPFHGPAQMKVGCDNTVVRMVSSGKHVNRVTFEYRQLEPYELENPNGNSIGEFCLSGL

[8] = Luminescence Cell-Based Dose Retest to Confirm Inhibitors of Cancer Stem Cells. [Related pubchem assays (depositor defined):AID2717, AID2721]; format: functional; conditions: Homo sapiens
[9] = HEp-2 cell cytotoxicity, dose response, cytotoxicity control for RSV inhibitor project, HTS (AID 2410); format: functional; conditions: human respiratory syncytial virus
[10] = molecular target: T2, Corticotropin-releasing factor receptor 2/Corticotropin-releasing factor-binding protein; experiment: Dose Response confirmation of uHTS hits for small molecule antagonists of the CRF-binding protein and CRF-R2 receptor complex.; format: functional; conditions: read-out: IC50_Mean

Cc1ccc(NC(=O)c2[nH]cnc2C(=O)NCCCCCNC(=O)OC(C)(C)C)cc1
IC50 (H9c2): > 79 µM (inactive)

CN(CC(=O)Nc1c(Cl)cccc1Cl)C(=O)Cn1[nH]c(=O)c2ccccc2c1=O
IC50 (H9c2): > 79 µM (inactive)

CCOc1cc2[nH]c(=S)n(CCC(=O)NCc3ccco3)c(=O)c2cc1OCC
EC50 [1]: > 112 µM (not active) | EC50 [2]: > 112 µM (not active)

O=C1N[C@H](Cc2c[nH]c3ccccc23)COC(=O)[C@H](Cc2ccc(F)cc2)C/C=C\C[C@H]1CC(=O)N(CCO)Cc1ccccc1
IC50 (H9c2): > 79 µM (inactive)

NC(=O)c1nsc(C(=O)N(Cc2ccco2)C(C(=O)NCc2ccc(F)cc2)c2ccc(O)cc2)c1N (centres undefined)
EC50 [3]: 0.105 µM (active)

COc1cccc(Cn2c(=O)c(-c3cn(C)c4ccccc34)nc3cncnc32)c1
AC50 (Cytochrome P450 3A4): 10 µM (inconclusive) | AC50 (Cytochrome P450 2C9): 0.794 µM (inconclusive)

Cc1cc2ccccc2nc1SCC(=O)N1c2ccccc2CC1C (centres undefined)
EC50 [1]: 11.9 µM (active) | EC50 [2]: > 112 µM (not active)

Cc1ccc(C(=O)c2oc3nc(C)cc(C)c3c2N)cc1
AC50 (Cytochrome P450 3A4): 0.891 µM (inconclusive) | EC50 [4]: > 160 µM (inactive) | AC50 (Cytochrome P450 2D6): 10 µM (inconclusive) | EC50 [5]: > 38 µM (not active)

COc1ccc(OC)c(NC(=O)CSc2nc(N)c(-c3ccccc3)c(O)n2)c1
EC50 [1]: > 112 µM (not active) | EC50 [2]: > 112 µM (not active)

CC(C)(C)N1C(=O)NC(=O)/C(=C/Nc2ccc3c(c2)CCC3)C1=O
CC50 [6]: > 40 µM (active)

CCOc1cc(/C=C2\C(=O)N(Cc3ccc(C)cc3)C(C)=C2C(=O)OC)ccc1O
AC50 (Cytochrome P450 3A4): 1 µM (inconclusive)

O=C(CCc1nc(O)c2ccccc2n1)N1CCN(S(=O)(=O)c2cc(Cl)ccc2Cl)CC1
IC50 (H9c2): > 79 µM (inactive)

COc1ccc(C(C(=O)NC2CCCC2)N(C(=O)c2snc(C(N)=O)c2N)c2cccc(O)c2)cc1 (centres undefined)
IC50 (H9c2): > 79 µM (inactive)

Cc1ccc(Oc2ccccc2/C=N/O)cc1
EC50 [3]: 9.44 µM (active)

Cc1n[nH]c(C)c1CCCCOc1ccccc1F
EC50 [3]: 3.76 µM (active)

CCNc1ncc2nc(-c3cccs3)c(=O)n(C)c2n1
AC50 (Cytochrome P450 3A4): 12.6 µM (inconclusive) | AC50 (Cytochrome P450 2C9): 10 µM (inconclusive)

Cc1c(O)cc2c(c1O)C(=O)CC(c1ccccc1)O2 (centres undefined) [STROBOPININ]
EC50 [7]: 2.69 µM (active) | AC50 [8]: 4.97 µM (active)

C/C(CC(=O)NCc1ccco1)=N\NC(=O)Cc1ccccc1
AC50 (Cytochrome P450 3A4): 17.8 µM (inconclusive)

Cn1cc(CN2CCCCC2CO)c(-c2ccc(Oc3ccccc3)cc2)n1 (centres undefined)
EC50 [3]: 7.5 µM (active)

CN1CCCCc2c1nc1ccccc1c2N.O=C(O)c1cncc(Br)c1
EC50 [3]: 0.668 µM (active)

CCOC(=O)c1[nH]c2cc(OC)c(OC)cc2c1NC(=O)c1nonc1C
AC50 (Cytochrome P450 3A4): 2.82 µM (inconclusive)

Cc1ccc(SCCNC(=O)c2ccccc2)cc1
AC50 (Cytochrome P450 3A4): 12.6 µM (inconclusive)

Cc1nnc(SCC(=O)N/N=C/c2cn(-c3ccccc3)nc2-c2ccccc2)n1-c1ccccc1
IC50 (H9c2): > 79 µM (inactive)

CCOc1cc(NC(=O)CCl)c(OCC)cc1NC(C)=O
CC50 [6]: 25.5 µM (active)

COc1cc(C(=O)N/N=C/c2sc(N3CCOCC3)nc2-c2ccccc2)cc(OC)c1OC
IC50 (H9c2): 9.3 µM (active)

COc1ccccc1C(=O)Nc1ccc2c(c1)CCCN2C(=O)c1cccs1
EC50 [3]: 3.35 µM (active) | CC50 [9]: 21.5 µM (active)

Cn1c(CN2CCCC2)nc2cc(NC(=O)COc3ccccc3)ccc21
EC50 [1]: > 112 µM (not active) | EC50 [2]: > 112 µM (not active)

Cc1cc(/C=C2\SC(Nc3ccc(F)cc3)=NC2=O)c(C)n1-c1ccc(S(N)(=O)=O)cc1
CC50 [6]: 12 µM (active)

NC(=O)N/N=C1\c2ccccc2-c2c(C(N)=O)cccc21
EC50 [3]: 1.5 µM (active)

CN(C)c1ccc([N+](=O)[O-])cc1C(=O)NCC(c1ccco1)N(C)C (centres undefined)
EC50 [3]: 0.299 µM (active)

Cn1c2[n+](c3ccc(Cl)cc3c1=O)Cc1ccccc1-2
EC50 [1]: > 112 µM (not active) | EC50 [2]: > 112 µM (not active)

CN(C)c1ccc(-c2nc(O)c3ccccc3n2)cc1
EC50 [1]: 33.4 µM (active) | EC50 [2]: 8.02 µM (active)

CC(=O)Nc1cccc(C(=O)NCC2(N3CCCCC3)CCCCC2)c1
EC50 [3]: 2.66 µM (active)

Cc1cc(Cl)ccc1NNC(=O)CCc1ccccc1
CC50 [6]: > 40 µM (active)

C[C@@H](OC(=O)c1[nH]cnc1C(=O)NCc1ccc(CNC(=O)OC(C)(C)C)cc1)c1ccccc1
IC50 (H9c2): > 79 µM (inactive)

C=CC[C@@H](CC(=O)N[C@H](CO)Cc1ccccc1)C(=O)N[C@@H](COC(=O)[C@@H](CC=C)CC(=O)OC(C)(C)C)Cc1ccccc1
IC50 (H9c2): 12.1 µM (active)

COc1ccc(COc2cc(-c3cccc(OC)c3)nc3ccc(NC(=O)c4ccc(OC)cc4)cc23)cc1
CC50 [6]: 15.8 µM (active) | IC50 (H9c2): > 79 µM (inactive)

Cc1ccc2nc(O)c3cc(C(=O)N(C)c4ccc(C)c(C)c4)sc3c2c1
EC50 [1]: > 112 µM (not active) | EC50 [2]: > 112 µM (not active)

C[C@@H]1OC2C3=C(C(=O)[C@H]4O[C@@H]4[C@H]3O)[C@@H]1[C@H]1[C@H](C)OC=C3[C@H](O)[C@H]4O[C@H]4/C(=N\OCc4ccccc4)[C@@]321
AC50 (Cytochrome P450 3A4): 3.98 µM (inconclusive)

COc1ccc(NC(=O)c2cc(-c3ccccc3OC)on2)cc1
IC50 [10]: > 47.1 µM (inactive) | EC50 [7]: > 53 µM (inactive) | AC50 [8]: 0.248 µM (active)

Cc1c(C2Nc3ccccc3C(=O)N2O)cnn1C (centres undefined)
IC50 (H9c2): > 79 µM (inactive)

CCOC(=O)C1CCN(CC(O)COc2ccc(C(C)(C)C)cc2)CC1 (centres undefined)
EC50 [3]: 1.88 µM (active)
